Measurements taken from ChEMBL document CHEMBL2151025, “Synthesis and structure-activity relationship of potent, selective and orally active anthranilamide-based factor Xa inhibitors: application of weakly basic sulfoximine group as novel S4 binding element” (Eur J Med Chem, 2012).
Activity calls are given as the source filed them. No cut-off for these calls is given here.

Each compound was assayed on Plasma.

Row | Compound | 2PT
1 | CCN(CC)CC(=O)N=S(C)(=O)c1ccc(C(=O)Nc2ccc(OC)cc2C(=O)Nc2ccc(Cl)cn2)cc1 (stereo unspecified) | 1.44 µM
2 | CS(=O)(=NC(N)=O)c1ccc(C(=O)Nc2ccc(Cl)cc2C(=O)Nc2ccc(Cl)cn2)cc1 (stereo unspecified) | 4.1 µM
3 | CS(=O)(=NCCN1CCCC1)c1ccc(C(=O)Nc2ccc(Cl)cc2C(=O)Nc2ccc(Cl)cn2)cc1 (stereo unspecified) | 2.16 µM
4 | CS(=O)(=NC(=O)CN1CCCCC1)c1ccc(C(=O)Nc2ccc(Cl)cc2C(=O)Nc2ccc(Cl)cn2)cc1 (stereo unspecified) | 1.73 µM
5 | COCC(=O)N=S(C)(=O)c1ccc(C(=O)Nc2ccc(Cl)cc2C(=O)Nc2ccc(Cl)cn2)cc1 (stereo unspecified) | 3 µM
6 | CC(=O)N=[S+](C)([O-])c1ccc(C(=O)Nc2ccc(Cl)cc2C(=O)Nc2ccc(Cl)cn2)cc1 (stereo unspecified) | 7 µM
7 | CC(C)N(CC(=O)N=S(C)(=O)c1ccc(C(=O)Nc2ccc(Cl)cc2C(=O)Nc2ccc(Cl)cn2)cc1)C(C)C (stereo unspecified) | 1.45 µM
8 | CS(=O)(=NC(=O)CN1CCC(O)CC1)c1ccc(C(=O)Nc2ccc(Cl)cc2C(=O)Nc2ccc(Cl)cn2)cc1 (stereo unspecified) | 2.16 µM
9 | C[S+](=N)([O-])c1ccc(C(=O)Nc2ccc(Cl)cc2C(=O)Nc2ccc(Cl)cn2)cc1 (stereo unspecified) | 7.2 µM
10 | CS(=O)(=NC#N)c1ccc(C(=O)Nc2ccc(Cl)cc2C(=O)Nc2ccc(Cl)cn2)cc1 (stereo unspecified) | 2.3 µM
11 | CS(=O)(=NC(=O)CN1CCC(C(N)=O)CC1)c1ccc(C(=O)Nc2ccc(Cl)cc2C(=O)Nc2ccc(Cl)cn2)cc1 (stereo unspecified) | 2.54 µM
12 | CN1CCN(CC(=O)N=S(C)(=O)c2ccc(C(=O)Nc3ccc(Cl)cc3C(=O)Nc3ccc(Cl)cn3)cc2)CC1 (stereo unspecified) | 2.03 µM

What follows are compounds tested against Coagulation factor X (Homo sapiens, UniProt P00742) (assay: Inhibition of human F10a using S-2765 as substrate at 0.1 uM after 45 mins).
Chain of Coagulation factor X (P00742 41-179 limits assumed): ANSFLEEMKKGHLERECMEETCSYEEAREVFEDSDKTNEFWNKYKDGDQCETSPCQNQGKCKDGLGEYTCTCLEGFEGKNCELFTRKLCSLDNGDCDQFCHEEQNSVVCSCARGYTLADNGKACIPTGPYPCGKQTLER
Chain of Coagulation factor X (P00742 235-488 limits assumed): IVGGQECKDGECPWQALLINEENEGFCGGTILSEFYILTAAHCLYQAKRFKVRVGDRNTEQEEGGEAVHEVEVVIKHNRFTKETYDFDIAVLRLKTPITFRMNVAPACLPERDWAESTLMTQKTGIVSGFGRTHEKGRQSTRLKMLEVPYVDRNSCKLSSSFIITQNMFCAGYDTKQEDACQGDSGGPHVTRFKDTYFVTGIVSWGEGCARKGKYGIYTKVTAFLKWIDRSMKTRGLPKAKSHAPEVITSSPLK

Row | Compound | inhibition
13 | CCN(CC)CC(=O)N=S(C)(=O)c1ccc(C(=O)Nc2ccc(OC)cc2C(=O)Nc2ccc(Cl)cn2)cc1 (stereo unspecified) | 56%
14 | CS(=O)(=NC(N)=O)c1ccc(C(=O)Nc2ccc(Cl)cc2C(=O)Nc2ccc(Cl)cn2)cc1 (stereo unspecified) | 41%
15 | CS(=O)(=NCCN1CCCC1)c1ccc(C(=O)Nc2ccc(Cl)cc2C(=O)Nc2ccc(Cl)cn2)cc1 (stereo unspecified) | 74%
16 | COc1cccc(C(=O)Nc2ccc(Cl)cn2)c1NC(=O)c1ccc(S(C)(=N)=O)cc1 (stereo unspecified) | inactive
17 | N=S(=O)(CCO)c1ccc(C(=O)Nc2ccc(Cl)cc2C(=O)Nc2ccc(Cl)cn2)cc1 (stereo unspecified) | inactive
18 | CCS(=N)(=O)c1ccc(C(=O)Nc2ccc(Cl)cc2C(=O)Nc2ccc(Cl)cn2)cc1 (stereo unspecified) | inactive
19 | CS(=O)(=NC(=O)CN1CCCCC1)c1ccc(C(=O)Nc2ccc(Cl)cc2C(=O)Nc2ccc(Cl)cn2)cc1 (stereo unspecified) | 97%
20 | CS(=N)(=O)Cc1ccc(C(=O)Nc2ccc(Cl)cc2C(=O)Nc2ccc(Cl)cn2)cc1 (stereo unspecified) | inactive
21 | COCC(=O)N=S(C)(=O)c1ccc(C(=O)Nc2ccc(Cl)cc2C(=O)Nc2ccc(Cl)cn2)cc1 (stereo unspecified) | 48%
22 | CC(=O)N=[S+](C)([O-])c1ccc(C(=O)Nc2ccc(Cl)cc2C(=O)Nc2ccc(Cl)cn2)cc1 (stereo unspecified) | 61%
23 | CC(C)N(CC(=O)N=S(C)(=O)c1ccc(C(=O)Nc2ccc(Cl)cc2C(=O)Nc2ccc(Cl)cn2)cc1)C(C)C (stereo unspecified) | 79%
24 | CS(=O)(=NC(=O)CN1CCOCC1)c1ccc(C(=O)Nc2ccc(Cl)cc2C(=O)Nc2ccc(Cl)cn2)cc1 (stereo unspecified) | 45%
25 | COc1cc(Cl)cc(C(=O)Nc2ccc(Cl)cn2)c1NC(=O)c1ccc(S(C)(=N)=O)cc1 (stereo unspecified) | 69%
26 | CS(=O)(=NC(=O)CN1CCC(O)CC1)c1ccc(C(=O)Nc2ccc(Cl)cc2C(=O)Nc2ccc(Cl)cn2)cc1 (stereo unspecified) | 69%
27 | C[S+](=N)([O-])c1ccc(C(=O)Nc2ccc(Cl)cc2C(=O)Nc2ccc(Cl)cn2)cc1 (stereo unspecified) | 76%
28 | CS(=O)(=NC#N)c1ccc(C(=O)Nc2ccc(Cl)cc2C(=O)Nc2ccc(Cl)cn2)cc1 (stereo unspecified) | 76%
29 | COc1ccc(NC(=O)c2ccc(S(C)(=N)=O)cc2)c(C(=O)Nc2ccc(Cl)cn2)c1 (stereo unspecified) | 42%
30 | CS(=O)(=NC(=O)CN1CCC(C(N)=O)CC1)c1ccc(C(=O)Nc2ccc(Cl)cc2C(=O)Nc2ccc(Cl)cn2)cc1 (stereo unspecified) | 49%
31 | CN1CCN(CC(=O)N=S(C)(=O)c2ccc(C(=O)Nc3ccc(Cl)cc3C(=O)Nc3ccc(Cl)cn3)cc2)CC1 (stereo unspecified) | 88%
